In paper PMC9281306 (ACS Omega, 2022):
Where two headings read alike, the source gives them in different places. Where a SMILES comes first, the peptide text is derived from it. [ ]: non-standard residue; d: D form.

Assays:
[1] = test system: Mabs ATCC 19977S smooth morphotype; assay: Mabs microdilution antimicrobial assay with purified peptides; type: cell-based, Mycobacterium abscessus; conditions: purified peptide, MHB with EDTA 100 μM, 96 h, 37 °C, OD600, three independent experiments
[2] = test system: Mabs ATCC 19977R rough morphotype; assay: as above; type: cell-based, Mycobacterium abscessus; conditions: purified peptide, MHB with EDTA 100 μM, 96 h, 37 °C, OD600, three independent experiments
[3] = test system: E. coli urinary tract infection clinical isolates; conditions: MIC in MHB, 22 h, 37 °C, triplicate
[4] = test system: human red blood cell (hRBC); assay: hRBC hemolytic assay; type: cell-based
[5] = test system: E. coli (ATCC 25922); assay: Cross-inhibitory activity assay; type: cell-based, Escherichia coli; conditions: MHB, 24 h, 37 °C; EDTA not given
[6] = test system: P. aeruginosa (ATCC 27853); assay: Cross-inhibitory activity assay; type: cell-based, Pseudomonas aeruginosa; conditions: MHB, 24 h, 37 °C; EDTA not given
[7] = test system: MRSA USA300; assay: Cross-inhibitory activity assay; type: cell-based, Staphylococcus aureus; conditions: MHB, 24 h, 37 °C; EDTA not given

Compound: CC(C)C[C@@H](NC(=O)[C@@H](C)NC(=O)[C@@H](CCCCN)NC(=O)[C@@H](CCCNC(=N)N)NC(=O)[C@H](Cc1ccccc1)NC(=O)[C@H](CCC(N)=O)NC(=O)[C@H](CC(N)=O)NC(=O)[C@@H](NC(=O)[C@@H](CCCCN)NC(=O)[C@@H](CCCNC(=N)N)NC(=O)[C@H](C)NC(=O)[C@@H](CCCCN)NC(=O)[C@H](CO)NC(=O)[C@@H](CC(C)C)NC(=O)CNC(=O)[C@H](Cc1ccc(O)cc1)NC(=O)[C@H](N)CCCNC(=N)N)C(C)C)C(N)=O [ASU2009] (H-[dR]YG[dL]S[dK]A[dR][dK]VNQF[dR][dK][dA][dL]-NH2)
- Mabs ATCC19977S MIC [1]: 256 µM
- Mabs ATCC19977R MIC [2]: 256 µM

Compound: CC1(C)S[C@@H]2[C@H](NC(=O)[C@H](N)c3ccccc3)C(=O)N2[C@H]1C(=O)O [Ampicillin]
- Ampicillin susceptibility ([3]; E. coli clinical isolate 23): susceptible
- Ampicillin susceptibility ([3]; E. coli clinical isolate 36): resistant
- Ampicillin susceptibility ([3]; E. coli clinical isolate 97): resistant
- Ampicillin susceptibility ([3]; E. coli clinical isolate 98): resistant

Compound: CC(C)C[C@@H](NC(=O)[C@@H](C)NC(=O)[C@H](CO)NC(=O)[C@@H](CCCCN)NC(=O)[C@@H](CCCNC(=N)N)NC(=O)[C@@H](CCCNC(=N)N)NC(=O)[C@H](Cc1ccccc1)NC(=O)[C@@H](CC(C)C)NC(=O)[C@H](CC(N)=O)NC(=O)[C@H](Cc1c[nH]cn1)NC(=O)[C@@H]1CCCN1C(=O)[C@H](C)NC(=O)[C@H](CO)NC(=O)[C@@H]1CCCN1C(=O)CNC(=O)[C@@H](NC(=O)[C@H](N)CCCNC(=N)N)C(C)C)C(N)=O [ASU2019] (H-[dR]VGPSAPHN[dL]F[dR][dR][dK]S[dA][dL]-NH2)
- Mabs ATCC19977S MIC [1]: 256 µM
- Mabs ATCC19977R MIC [2]: 256 µM

Compound: Triton X-100 [reference compound]
- hRBC lysis by positive control ([4]; 1%, 4% hRBC in saline, 37 °C, OD475): complete hRBC lysis

Compound: CC(C)C[C@@H](NC(=O)[C@@H](C)NC(=O)CNC(=O)[C@@H](CC(C)C)NC(=O)[C@@H](CCCCN)NC(=O)[C@@H](CCCNC(=N)N)NC(=O)[C@@H](CCCNC(=N)N)NC(=O)[C@H](CC(N)=O)NC(=O)[C@H](Cc1ccc(O)cc1)NC(=O)[C@@H](CCCNC(=N)N)NC(=O)[C@H](C)NC(=O)[C@H](CO)NC(=O)[C@@H](CCCNC(=N)N)NC(=O)CNC(=O)[C@@H](N)Cc1ccc(O)cc1)C(=O)N[C@@H](CO)C(=O)NCC(N)=O [ASU2059] (H-YG[dR]SA[dR]YN[dR][dR][dK][dL]G[dA][dL]SG-NH2)
- Mabs ATCC19977S MIC [1]: 256 µM
- Mabs ATCC19977R MIC [2]: 256 µM

Compound: CC(C)C[C@@H](NC(=O)CNC(=O)[C@@H](Cc1c[nH]c2ccccc12)NC(=O)[C@@H](CCCNC(=N)N)NC(=O)[C@@H](N)CCC(N)=O)C(=O)N[C@@H](CO)C(=O)N[C@H](CC(C)C)C(=O)N[C@@H](C)C(=O)N1CCC[C@H]1C(=O)N[C@@H](Cc1ccc(O)cc1)C(=O)N[C@H](CCCCN)C(=O)N[C@@H](CC(N)=O)C(=O)N[C@@H](Cc1ccccc1)C(=O)N[C@H](CCCNC(=N)N)C(=O)N[C@H](CCCNC(=N)N)C(=O)N[C@H](CC(C)C)C(=O)N[C@@H](CO)C(N)=O [ASU2056] (H-Q[dR][dW]G[dL]S[dL]APY[dK]NF[dR][dR][dL]S-NH2)
- Mabs ATCC19977S MIC [1]: 32 µM
- Mabs ATCC19977R MIC [2]: >256 µM
- E. coli ATCC 25922 MIC [5]: 16 µM
- P. aeruginosa ATCC 27853 MIC [6]: >32 µM
- MRSA USA300 MIC [7]: >32 µM

Compound: CC(C)C[C@@H](NC(=O)CNC(=O)[C@H](CO)NC(=O)[C@@H](CCCCN)NC(=O)[C@@H](CCCNC(=N)N)NC(=O)[C@@H](Cc1c[nH]c2ccccc12)NC(=O)[C@@H](CCCNC(=N)N)NC(=O)[C@H](Cc1ccccc1)NC(=O)[C@H](CC(N)=O)NC(=O)[C@H](Cc1ccc(O)cc1)NC(=O)[C@@H](CCCNC(=N)N)NC(=O)[C@H](C)NC(=O)[C@H](CO)NC(=O)[C@@H](Cc1c[nH]c2ccccc12)NC(=O)[C@@H](CCCNC(=N)N)NC(=O)CNC(=O)[C@@H](N)C(C)C)C(N)=O [ASU2060] (H-VG[dR][dW]SA[dR]YNF[dR][dW][dR][dK]SG[dL]-NH2)
- Mabs ATCC19977S MIC [1]: 8 µM
- Mabs ATCC19977R MIC [2]: 256 µM
- E. coli ATCC 25922 MIC [5]: 4 µM
- P. aeruginosa ATCC 27853 MIC [6]: 8 µM
- MRSA USA300 MIC [7]: 8 µM
- hRBC hemolysis ([4]; 32 µM): less than 1%
